Data: patent US12263277B2, “Uniaxially-aligned nanofiber scaffolds and methods for producing and using same” (Oridivus LLC, priority 2019, dated 2025)
“Also recorded” adds a separate entry of the source.

Assays:
[1] = tested on: oronasal fistula (ONF) in the hard palate; assay: Murine oronasal fistula (ONF) model, wound healing after scaffold implantation; assay type: in vivo, mice
Source text: To understand the wound healing characteristics of the oral mucosa, the present disclosure provides an ONF model utilizing thermal injury for creating the ONF. In at least one embodiment, the ONF model permits study of the cellular and inflammatory infiltration to the wound site during the healing process. An exemplary analysis of FTY720 effects on ONF healing in the model includes, but is not limited to: 1) forming an ONF in each of a plurality of samples (e.g., mice); 2) dividing the mice into 3 groups, a no implant group, a group where blank nanofiber scaffolds are implanted, and a group where uniaxially-aligned nanofiber scaffolds with FTY720 are implanted; and 3) evaluating ONF healing results at predetermined time points (e.g., day 3, day 5, day 7, etc.).
To produce a Murine ONF model, 12 week old C57/b6 mice are obtained (for example from Jackson Laboratories) and anesthetized using intraperitoneal ketamine. According to one embodiment, the oral cavity is accessed using a retractor while the mice are spontaneously breathing. […] The time points include 0, 3, 5, and 7 days and healing of the ONF is assessed using histomorphometry while functional outcomes are measured evaluating for poor oral intake measured by body weight loss, dehydration (serum sodium using an ELIZA assay), and eventual death (Kaplan Meir curve).
After staining the slides, Hamamatsu NanoZoomer 2.0 HT processor was used to scan slides and they were then analyzed in Hamamatsu NDP.view2 Viewing Software. […]
To determine if a targeted auto-therapy induction of pro-regenerative monocytes and macrophages would lead to improved ONF healing, the delivery of FTY-720, a sphingosine analog that increases pro-regenerative monocytes and macrophages was tested via a nanofiber scaffold. […] With reference to FIGS. 13A-D, to examine the effects of the FTY-720 on the host inflammatory response, quantitative polymerase chain reaction (PCR) on the mucosal tissue surrounding the injury was performed and determined that IL-1 was decreased in the presence of FTY-720 whereas IL-6 and IL-10 were increased.

LY6C^lo monocytes = assay: Flow cytometry of hard palate mucosa in ONF model, monocytes; assay type: in vivo, mice
Source text: (§1) FTY720 is a sphingosine-1-phosphate receptor analogue that is linked to LY6C^lo (anti-inflammatory) monocytes and M2 (Pro-regenerative) macrophages attraction. According to one embodiment, for analysis of lymphocyte populations, cells are stained for flow cytometry with one or more of the following antibodies: Zombie NIR™ Fixable Viability Kit (Biolegend), PE anti-mouse MERTK (Mer) Antibody (Biolegend), Brilliant Violet 711™ anti-mouse CD64 (FcγRI) Antibody (Biolegend), Brilliant Violet 510™ anti-mouse Ly-6C Antibody (Biolegend), FITC anti-mouse CD206 (MMR) Antibody (Biolegend), Brilliant Violet 421™ anti-mouse/human CD11b Antibody (Biolegend). In various embodiments, to detect and sort for anti-inflammatory LY6C^lo monocytes and M2 Macrophages, real-time polymerase chain reaction (PCR) analysis is performed with iQ SYBR green supermix (Bio-Rad, 1708882) in a Bio-Rad iCycler for 40 cycles to assess the expression of inflammatory IL-1, IL-4 and IL-6 and anti-inflammatory IL-10 and transcription factor Sox2, which is related to keratinocyte migration and proliferation. In one or more embodiments, slides are stained for H&E and Phospho-histone 3 to assess keratinocytes undergoing mitosis.
In various embodiments, flow cytometry of inflammatory cells is performed to characterize monocyte and macrophage phenotypes. In one or more embodiments, for analysis of lymphocyte populations, hard palate mucosa is harvested and digested in 1 mg/ml collagenase I (Sigma) for 45 minutes at 37 degrees Celsius. In at least one embodiment, the digested mucosa is filtered through a cell strainer to obtain a single cell suspension. According to one embodiment, the single-cell suspensions are stained for live cells using either Zombie Green or Zombie NIR (Biolegend) dyes in cell-culture grade PBS per manufacturer instructions. In various embodiments, cells are stained with cell phenotyping antibodies in a 1:1 volume ratio of 3% FBS and Brilliant Stain Buffer (BD Biosciences) according to standard procedures and analyzed on a FACS AriaIIIu flow cytometer (BD Biosciences). […] According to one embodiment, 30 μL of Accucheck Counting Beads (Invitrogen) are added per sample for absolute quantification of cell populations.
(§2) For analysis of lymphocyte populations, oral mucosal tissues were harvested and digested in 1 mg/ml collagenase I (Sigma) for 45 minutes at 37 degrees Celsius. […] Cells were then stained with cell phenotyping antibodies in a 1:1 volume ratio of 3% FBS and Brilliant Stain Buffer (BD Biosciences) according to standard procedures and analyzed on a FACS AriaIIIu flow cytometer (BD Biosciences). […]

M2 macrophages = assay: Flow cytometry of hard palate mucosa in ONF model, macrophages; assay type: in vivo, mice
Source text: as §1, with “In one or more embodiments, slides are stained for H&E and Phospho-histone 3 to assess keratinocytes undergoing mitosis.” left out
In various embodiments, flow cytometry of inflammatory cells is performed to characterize monocyte and macrophage phenotypes. […] In various embodiments, cells are stained with cell phenotyping antibodies in a 1:1 volume ratio of 3% FBS and Brilliant Stain Buffer (BD Biosciences) according to standard procedures and analyzed on a FACS AriaIIIu flow cytometer (BD Biosciences). […] According to one embodiment, 30 μL of Accucheck Counting Beads (Invitrogen) are added per sample for absolute quantification of cell populations.
as §2

IL-1 = assay: Quantitative PCR of hard palate mucosa around the injury, IL-1; assay type: in vivo, mice; conditions: vs blank scaffold
Source text: (§3) FTY720 is a sphingosine-1-phosphate receptor analogue that is linked to LY6C^lo (anti-inflammatory) monocytes and M2 (Pro-regenerative) macrophages attraction. According to one embodiment, for analysis of lymphocyte populations, cells are stained for flow cytometry with one or more of the following antibodies: Zombie NIR™ Fixable Viability Kit (Biolegend), PE anti-mouse MERTK (Mer) Antibody (Biolegend), Brilliant Violet 711™ anti-mouse CD64 (FcγRI) Antibody (Biolegend), Brilliant Violet 510™ anti-mouse Ly-6C Antibody (Biolegend), FITC anti-mouse CD206 (MMR) Antibody (Biolegend), Brilliant Violet 421™ anti-mouse/human CD11b Antibody (Biolegend). […]
(§4) According to one embodiment, during oral cavity wound healing following injury, there is predominantly a pro-inflammatory lymphocytic infiltrate. […] According to one embodiment, the IL assessment is performed in samples with and without scaffold placement, and includes using quantitative PCR of hard palate mucosa at day 3, 5, and 7 and comparing results to controls. In at least one embodiment, serum is collected and evaluated for levels of IL1, IL6, IL10 and VEGF using ELIZA to determine if there are systemic alterations in inflammatory and vasculogenic gene regulation and compared to uninjured controls. […]

IL-6 = assay: Quantitative PCR of hard palate mucosa around the injury, IL-6; assay type: in vivo, mice; conditions: vs blank scaffold
Source text: as §3, §4

IL-10 = assay: Quantitative PCR of hard palate mucosa around the injury, IL-10; assay type: in vivo, mice; conditions: vs blank scaffold
Source text: as §3, §4

[2] = tested on: palatine and surrounding hard palate bones; assay: μCT evaluation of hard palate bones after ONF creation; assay type: in vivo, mice; conditions: following ONF creation
Method: According to one embodiment, similar to humans, the critical wound healing time point is immediately following hard palate injury (or surgery) and fistula healing is unlikely after this critical time period. To assess the critical wound healing time, in at least one embodiment, ONFs are created in Murine models and standard histomorphologic evaluation of the mice following injury at day 0, 3, 5, 7, and 14 days is performed. According to one embodiment, the specimens are assessed using H+E staining of coronal sections in […] (10 male and 10 female) each to evaluate: the width of the ONF, the presence or absence of inflammatory infiltrate at the wound edges, the formation of a basement membrane in the healing areas (using type IV collagen and laminin staining). In at least one embodiment, the exposure of the maxillary and palatine bones as well as the surrounding maxillary structures are evaluated using micro-computed tomography (μCT) imaging.
According to one embodiment, ONF area width is measured at each of the time points and compared to controls. […] In various embodiments, to measure the proliferative and apoptosis response following oral injury, proliferation and apoptosis are assessed. […]

cutaneous wound = assay: Cutaneous wound healing / dorsal skinfold window chamber model; assay type: in vivo
Source text: In one example, FTY720 and FTY720-P are released from 1 mm diameter thin films in a cutaneous dorsal skinfold window chamber for 3 days to investigate the in vivo gradient produced by H-ME PLGA film release of S1P receptor targeting compounds.
Multiple approaches can be used to improve the recruitment of the pro-regenerative monocytes and macrophages to cutaneous wounds.

[3] = In vitro release of FTY720 from controlled-release polymers; assay type: physicochemical; conditions: acid-capped L-A and methyl-ester capped H-ME polymers, incubation in vitro
Source text: In one or more embodiments, the S1PR agonist FTY720 is differentially released from polymers for controlled release (“acid-capped” L-A and “methyl-ester capped” H-ME polymers). […] According to one embodiment, an immunoregenerative approach is executed to control how M1 to M2 are spatially and temporally regulated by recruitment of anti-inflammatory monocytes (AM). In at least one embodiment, the immunoregenerative approach includes determining how localized administration of FTY720 is compartmentalized in vivo. In one or more embodiments, the phosphorylated form of the drug FTY720-P is primarily responsible for receptor mediated signaling and has much lower threshold effective concentrations than FTY720 at all of the S1PRs. In at least one embodiment, similar to S1P, FTY720-P must be dephosphorylated by LPP3 to enter the cell. According to one embodiment, once inside the cell, FTY720 can be phosphorylated by sphingosine kinase 2 (SPHK2) and subsequently exported from the cell by Spns2. In various embodiments, the ability of FTY720 to be reversibly phosphorylated allows it to undergo multiple cycles of signaling in the tissue, contributing to a sustained gradient. According to one embodiment, the regulatory roles of local gradients of FTY720 and FTY720-P are differentiable.

S1PRs = conditions: all of the S1PRs; cited from earlier work
[4] = cutaneous wound, local delivery

SMILES	ONF wound healing ([1]; day 5, vs blank scaffold)	ONF wound healing ([1]; day 7, vs blank scaffold)	ONF / oral cavity wound healing ([1]; no time point stated, vs blank scaffold)	LY6C^lo % of total CD11B+ cells (LY6C^lo monocytes; day 3, flow cytometry, implanted scaffold, blank 12.7±5.7) [%]	LY6Clo monocytes in wound bed (LY6C^lo monocytes; day 3, vs blank scaffolds)	LY6C^lo % of total cells (LY6C^lo monocytes; day 3 post-ONF formation, flow cytometry, implanted scaffold, blank 3.7%±0.9)	Ly6Clo monocytes in the wound bed (LY6C^lo monocytes; during healing, no time point stated, vs blank scaffolds)	M2 Macrophages % of total cells (M2 macrophages; day 3, flow cytometry, implanted scaffold, blank 1.4±0.2%) [%]	M2 Macrophages % of Macrophages (M2 macrophages; day 3, flow cytometry, implanted scaffold, blank 34.7±6.4%) [%]	migration of M2 macrophages into a wound bed (M2 macrophages; e.g. in the hard palate, no time point)	IL-1 expression (IL-1)	IL-6 expression (IL-6)	IL-10 expression (IL-10)	μCT changes to the underlying bone [2]	migration of M2 macrophages into a wound bed (cutaneous wound; cutaneous wound context)	cutaneous wound healing (cutaneous wound; [4])	recruitment of anti-inflammatory (AM, Ly6C^lo) monocytes (cutaneous wound; [4])	vascularity (cutaneous wound; cutaneous wound, thin film release, 3 days)	in vitro release profile [3]	threshold effective concentrations relative to FTY720 (S1PRs)
CCCCCCCCc1ccc(CCC(N)(CO)CO)cc1 [FTY720]	wound contracture	complete healing	healing, including reepithelization; also recorded: improved wound healing; also recorded: greater injury healing and ONF prevention	22.5±5.6	increased	5.7%±0.6	increase	3.7±0.5	63.6±3.9	increases the migration	decreased	increased	increased	did not reveal any changes	increases the migration	improved wound healing	increases the frequency; also recorded: selectively recruits non-classical Ly6C^lo monocytes; also recorded: significantly increases the proportion; also recorded: recruits AM monocytes	increased vascularity	initial burst in the first hours of incubation in vitro, followed by a delay and a second phase of release between 3 and 5 days	–
CCCCCCCCc1ccc(CC[C@](N)(CO)COP(=O)(O)O)cc1 [FTY720-P]	–	–	–	–	–	–	–	–	–	–	–	–	–	–	–	–	–	–	–	much lower
